The target in assay [1] is T1, Cholinesterase (Homo sapiens, UniProt P06276). Put plainly: Inhibition of human BuchE preincubated for 30 mins followed by substrate addition using butyrylthiocholine iodide as substrate by Ellman's method. In general terms: Ellman's reagent forms a yellow product with free thiols.
The target of assay [2] is T2, Acetylcholinesterase (Electrophorus electricus, UniProt O42275). The assay is described as follows: Inhibition of electric eel AchE preincubated for 30 mins followed by substrate addition using acetylthiocholine iodide as substrate by Ellman's method.
The next assay has as its system PC-12. Put plainly: Neuroprotective activity against amyloid beta (1 to 42)-induced cytotoxicity in rat PC-12 cells assessed as increase in cell viability at 50 uM preincubated for 2 hrs followed by amyloid beta (1 to 42) stimulation and measured after 24 hrs by MTT assay. Type of assay: functional. As to conditions: time 26 hrs. A general note: Formazan colour is commonly taken as a measure of viable cells.

Assay [3] addresses T1, Cholinesterase.
Description: Inhibition of human BuchE preincubated for 6 mins followed by substrate addition using butyrylthiocholine iodide as substrate by DTNB reagent based Ellman method
Assay [4] has as its target Amyloid-beta precursor protein (Homo sapiens) (UniProt P05067). The assay is described as follows: Inhibition of self-induced amyloid beta (1 to 42) (unknown origin) aggregation at 20 uM incubated for 46 to 48 hrs in dark by ThT-based fluorimetric assay. As to conditions: time 46-48 hrs.
Assay [5] has as its target T3, Cholinesterase (Equus caballus, UniProt P81908). Put plainly: Inhibition of equine serum BuchE preincubated for 6 mins followed by substrate addition using butyrylthiocholine iodide as substrate by DTNB reagent based Ellman method.
A further assay concerns SH-SY5Y. The assay is described as follows: Neuroprotective activity against H2O2-induced cytotoxicity in human SH-SY5Y cells assessed as increase in cell viability at 10 uM preincubated for 24 hrs followed by H2O2 stimulation and measured after 24 hrs by MTS assay. The format is functional. As to conditions: time 48 hrs.
Assay [6] in a line: Antioxidant activity of compound assessed as trolox equivalent of AAPH radical scavenging activity preincubated for 15 mins followed by AAPH addition and measured every 1 min for 60 mins by ORAC-FL assay. Type of assay: functional. As to conditions: time 75.0 min.
A short description of assay [7]: Antioxidant activity assessed as DPPH radical scavenging activity at 200 uM incubated for 2 hrs in dark by spectrophotometric analysis. Type of assay: functional. Background: DPPH is a stable violet radical that fades when it is reduced.
Assay [8] concerns the target Amyloid-beta precursor protein (Homo sapiens) (UniProt P05067). Put plainly: Inhibition of self-induced amyloid beta (1 to 40) (unknown origin) aggregation at 20 uM incubated for 48 hrs by ThT-based fluorimetric assay.
In assay [9] the target is Acetylcholinesterase (Homo sapiens, UniProt P22303). The assay is described as follows: Inhibition of human AchE preincubated for 15 mins followed by substrate addition and measured for 5 mins using acetylthiocholine iodide as substrate by DTNB reagent based Ellman's method.
The target of assay [10] is Amyloid-beta precursor protein (Homo sapiens) (UniProt P05067). The assay is described as follows: Inhibition of self-induced amyloid beta (1 to 42) (unknown origin) aggregation at 25 uM incubated for 24 hrs in dark by ThT-based fluorimetric assay.
Assay [11] shares this target. Put plainly: Inhibition of self-induced amyloid beta (1 to 42) (unknown origin) aggregation assessed as disaggregation at 25 uM incubated for 24 hrs in dark by ThT-based fluorimetric assay.
Assay [12] deals with T2, Acetylcholinesterase. Put plainly: Inhibition of electric eel AChE incubated for 15 mins using acetylthiocholine as substrate by Ellman's method.
Assay [13] deals with T3, Cholinesterase. Put plainly: Inhibition of equine BuChE incubated for 15 mins using butyrylthiocholine as substrate by Ellman's method.
Assay [14] deals with T4, Amine oxidase [flavin-containing] B (Homo sapiens, UniProt P27338).
T4 sequence (P27338 whole entry): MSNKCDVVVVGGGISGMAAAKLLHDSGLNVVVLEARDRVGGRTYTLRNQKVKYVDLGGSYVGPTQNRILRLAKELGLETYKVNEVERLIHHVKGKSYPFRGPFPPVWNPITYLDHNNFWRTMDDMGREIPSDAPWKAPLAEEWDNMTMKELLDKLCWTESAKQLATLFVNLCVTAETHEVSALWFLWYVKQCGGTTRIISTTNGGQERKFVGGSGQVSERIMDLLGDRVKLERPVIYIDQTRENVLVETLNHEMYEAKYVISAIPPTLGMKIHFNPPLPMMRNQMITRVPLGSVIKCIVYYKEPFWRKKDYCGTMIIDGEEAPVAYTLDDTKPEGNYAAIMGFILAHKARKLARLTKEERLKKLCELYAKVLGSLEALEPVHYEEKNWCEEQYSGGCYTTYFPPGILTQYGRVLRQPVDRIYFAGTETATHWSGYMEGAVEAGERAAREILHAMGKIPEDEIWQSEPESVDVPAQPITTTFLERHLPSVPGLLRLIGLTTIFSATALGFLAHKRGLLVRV
Put plainly: Inhibition of recombinant human MAO-B assessed as measuring amount of 4-hydroxyquinoline using kynuramine as substrate incubated for 30 mins by fluorescence spectrophotometry.

The target in assay [15] is T5, Amine oxidase [flavin-containing] A (Homo sapiens, UniProt P21397).
T5 sequence (P21397 whole entry): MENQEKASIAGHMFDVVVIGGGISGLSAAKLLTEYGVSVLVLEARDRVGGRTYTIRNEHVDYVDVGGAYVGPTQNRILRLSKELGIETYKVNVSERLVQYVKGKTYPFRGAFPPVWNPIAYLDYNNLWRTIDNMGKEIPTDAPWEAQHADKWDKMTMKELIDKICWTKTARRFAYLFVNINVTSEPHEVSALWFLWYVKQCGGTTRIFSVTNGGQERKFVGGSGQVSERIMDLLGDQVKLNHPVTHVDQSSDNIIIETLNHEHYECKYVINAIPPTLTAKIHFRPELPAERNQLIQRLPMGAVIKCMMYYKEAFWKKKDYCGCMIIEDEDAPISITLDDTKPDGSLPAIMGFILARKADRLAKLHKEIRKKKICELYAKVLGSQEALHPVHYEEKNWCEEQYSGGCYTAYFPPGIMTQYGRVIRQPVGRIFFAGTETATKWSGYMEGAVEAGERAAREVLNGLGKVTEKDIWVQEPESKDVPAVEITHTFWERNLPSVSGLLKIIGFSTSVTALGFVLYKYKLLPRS
The assay is described as follows: Inhibition of recombinant human MAO-A assessed as measuring amount of 4-hydroxyquinoline using kynuramine as substrate incubated for 30 mins by fluorescence spectrophotometry.

Assay [16] in a line: Antioxidant activity assessed as trolox equivalent of ORAC radical scavenging activity by ORAC-FL assay. Type of assay: functional.
Assay [17] has as its target T4, Amine oxidase [flavin-containing] B. Put plainly: Inhibition of recombinant human MAO-B using kynuramine as substrate preincubated for 15 mins followed by enzyme addition and further incubated for 20 mins by fluorescence microplate reader analysis.
Assay [18] has the same target. Put plainly: Inhibition of human MAO-B using p-tyramine as substrate preincubated for 15 mins followed by susbtrate addition and measured after 15 mins by HRP and Amplex Red reagent based fluorometric analysis.
In assay [19] the target is T5, Amine oxidase [flavin-containing] A. The assay is described as follows: Inhibition of human MAO-A using p-tyramine as substrate preincubated for 15 mins followed by susbtrate addition and measured after 15 mins by HRP and Amplex Red reagent based fluorometric analysis.

This is an account of results in ChEMBL document CHEMBL5096162, “A review on ferulic acid and analogs based scaffolds for the management of Alzheimer's disease” (Eur J Med Chem, 2021).

Molecules are shown by their SMILES.

Chain of Amyloid-beta precursor protein (Homo sapiens) (P05067 whole entry): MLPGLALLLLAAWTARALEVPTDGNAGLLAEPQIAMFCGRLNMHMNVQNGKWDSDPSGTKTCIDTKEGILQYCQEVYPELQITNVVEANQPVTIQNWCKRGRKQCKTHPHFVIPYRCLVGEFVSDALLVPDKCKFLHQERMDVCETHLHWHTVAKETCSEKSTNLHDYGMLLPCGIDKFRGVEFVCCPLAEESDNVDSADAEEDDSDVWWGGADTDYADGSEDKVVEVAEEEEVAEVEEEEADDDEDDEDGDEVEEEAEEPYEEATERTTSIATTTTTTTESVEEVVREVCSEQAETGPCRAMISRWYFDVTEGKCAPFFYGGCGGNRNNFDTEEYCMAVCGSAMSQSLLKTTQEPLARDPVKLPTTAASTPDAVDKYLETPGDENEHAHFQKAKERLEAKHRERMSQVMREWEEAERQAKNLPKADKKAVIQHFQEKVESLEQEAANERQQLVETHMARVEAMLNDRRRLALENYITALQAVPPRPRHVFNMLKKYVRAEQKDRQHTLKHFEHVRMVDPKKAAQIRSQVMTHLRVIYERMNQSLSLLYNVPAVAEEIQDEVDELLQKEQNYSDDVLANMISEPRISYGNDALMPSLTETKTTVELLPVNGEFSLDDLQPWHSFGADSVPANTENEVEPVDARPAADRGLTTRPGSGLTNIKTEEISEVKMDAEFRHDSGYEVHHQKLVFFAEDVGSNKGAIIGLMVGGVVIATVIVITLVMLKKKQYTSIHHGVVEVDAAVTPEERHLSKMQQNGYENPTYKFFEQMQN
T2 sequence (O42275 whole entry): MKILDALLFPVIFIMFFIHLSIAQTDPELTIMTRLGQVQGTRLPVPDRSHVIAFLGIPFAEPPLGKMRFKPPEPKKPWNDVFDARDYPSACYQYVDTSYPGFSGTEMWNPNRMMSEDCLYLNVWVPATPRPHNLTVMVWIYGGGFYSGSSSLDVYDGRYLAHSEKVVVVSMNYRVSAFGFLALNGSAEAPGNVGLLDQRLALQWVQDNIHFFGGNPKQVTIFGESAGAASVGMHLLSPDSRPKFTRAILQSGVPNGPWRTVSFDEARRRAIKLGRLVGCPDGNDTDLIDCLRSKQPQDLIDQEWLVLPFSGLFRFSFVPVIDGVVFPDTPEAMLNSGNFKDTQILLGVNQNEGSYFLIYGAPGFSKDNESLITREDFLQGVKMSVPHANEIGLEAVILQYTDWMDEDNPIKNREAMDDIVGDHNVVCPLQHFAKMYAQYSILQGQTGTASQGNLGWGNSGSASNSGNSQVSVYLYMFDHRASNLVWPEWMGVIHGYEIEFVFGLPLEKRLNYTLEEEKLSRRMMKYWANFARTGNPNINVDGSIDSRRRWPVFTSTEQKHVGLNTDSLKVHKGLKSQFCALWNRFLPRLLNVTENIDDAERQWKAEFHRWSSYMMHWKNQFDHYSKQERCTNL
T1 sequence (P06276 whole entry): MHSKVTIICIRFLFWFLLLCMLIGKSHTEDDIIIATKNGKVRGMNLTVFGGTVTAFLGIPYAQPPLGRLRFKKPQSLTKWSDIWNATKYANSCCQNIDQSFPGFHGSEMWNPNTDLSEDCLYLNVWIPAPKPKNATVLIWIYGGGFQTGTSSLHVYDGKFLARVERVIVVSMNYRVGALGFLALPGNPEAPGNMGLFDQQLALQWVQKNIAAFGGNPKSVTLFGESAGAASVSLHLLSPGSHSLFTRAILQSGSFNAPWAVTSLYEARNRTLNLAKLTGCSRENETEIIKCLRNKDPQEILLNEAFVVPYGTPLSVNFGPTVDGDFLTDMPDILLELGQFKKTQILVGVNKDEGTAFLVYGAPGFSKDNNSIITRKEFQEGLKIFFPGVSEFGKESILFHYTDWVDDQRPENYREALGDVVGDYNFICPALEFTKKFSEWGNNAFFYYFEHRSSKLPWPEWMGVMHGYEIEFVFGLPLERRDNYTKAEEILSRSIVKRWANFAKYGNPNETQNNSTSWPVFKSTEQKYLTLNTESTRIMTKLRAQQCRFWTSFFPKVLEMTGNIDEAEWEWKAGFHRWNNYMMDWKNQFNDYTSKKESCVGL
T3 sequence (P81908 whole entry): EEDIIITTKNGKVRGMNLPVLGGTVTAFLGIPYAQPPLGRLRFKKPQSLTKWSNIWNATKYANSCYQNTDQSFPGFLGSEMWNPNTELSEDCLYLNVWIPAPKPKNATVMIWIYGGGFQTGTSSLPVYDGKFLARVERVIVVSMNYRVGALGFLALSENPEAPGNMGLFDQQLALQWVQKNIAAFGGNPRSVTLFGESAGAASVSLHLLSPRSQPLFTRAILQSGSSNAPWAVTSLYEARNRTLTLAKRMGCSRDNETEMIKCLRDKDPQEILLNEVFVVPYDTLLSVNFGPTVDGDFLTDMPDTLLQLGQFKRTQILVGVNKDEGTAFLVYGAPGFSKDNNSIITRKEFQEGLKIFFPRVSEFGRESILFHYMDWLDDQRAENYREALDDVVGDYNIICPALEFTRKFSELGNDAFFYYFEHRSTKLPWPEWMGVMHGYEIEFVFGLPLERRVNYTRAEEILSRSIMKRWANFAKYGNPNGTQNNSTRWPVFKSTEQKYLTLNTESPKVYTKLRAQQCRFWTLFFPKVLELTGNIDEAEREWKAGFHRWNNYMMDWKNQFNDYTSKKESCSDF
Chain of Acetylcholinesterase (Homo sapiens, UniProt P22303) (P22303 whole entry): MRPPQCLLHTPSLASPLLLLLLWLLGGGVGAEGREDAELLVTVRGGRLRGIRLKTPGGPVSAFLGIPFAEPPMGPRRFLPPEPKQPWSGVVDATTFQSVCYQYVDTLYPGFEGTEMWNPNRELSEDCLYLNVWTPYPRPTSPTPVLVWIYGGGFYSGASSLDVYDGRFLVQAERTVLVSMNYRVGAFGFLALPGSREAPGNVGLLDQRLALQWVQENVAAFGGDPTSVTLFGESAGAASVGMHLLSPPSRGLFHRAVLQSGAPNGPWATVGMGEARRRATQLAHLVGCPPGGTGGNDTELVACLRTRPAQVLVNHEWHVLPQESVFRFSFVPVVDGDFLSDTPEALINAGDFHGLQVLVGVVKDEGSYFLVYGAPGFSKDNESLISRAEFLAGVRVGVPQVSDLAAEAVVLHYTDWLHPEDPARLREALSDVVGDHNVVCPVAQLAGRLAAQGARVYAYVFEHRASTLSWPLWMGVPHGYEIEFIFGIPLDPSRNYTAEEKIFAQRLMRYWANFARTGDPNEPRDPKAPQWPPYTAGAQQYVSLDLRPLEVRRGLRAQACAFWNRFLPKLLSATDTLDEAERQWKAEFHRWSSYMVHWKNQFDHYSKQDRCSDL

With `COc1cc(/C=C/C(=O)O[C@H]2C[C@H]3O[C@H](OC(=O)Nc4ccccc4)C[C@H]3O2)ccc1O`, the IC50 at Cholinesterase [1] amounted to 29.2 µM; on Acetylcholinesterase [2], 27.1 µM.
Turning to `COc1ccc(/C=C/C(=O)Nc2cc[n+](Cc3ccc(F)cc3)cc2)cc1OC.[Br-]`, in the assay on PC-12, the Activity came out at 66.6%. Further, the IC50 against Cholinesterase [3] was determined as 4.4 nM; against Cholinesterase [5], 2.6 nM. Further, the inhibition in assay [4] was found to be 65.6%.
As for `O=C(NCc1ccccc1)C(c1cc2ccccc2nc1Cl)N(Cc1ccccc1)C(=O)/C=C/c1ccc(O)c(O)c1` (stereo unspecified), the Activity was 21.87% in the assay with SH-SY5Y, 6.86 equiv in assay [6] and > 77% in [7]. The compound further displayed an inhibition in assay [8] of 62.7%.
Take `C[N+](C)(C)CCNC(=O)/C=C/c1ccc(O)c(O)c1`: at Acetylcholinesterase [9], the IC50 amounted to 7.3 µM.
Regarding `COc1cc(/C=C/C(=O)N2CCc3ccccc3C2)ccc1OCCCCN(CNCc1ccccc1)CNCc1ccccc1`, the inhibition in assay [10] worked out at 59.3%; in assay [11], 43.8%. Also, the IC50 against Acetylcholinesterase [12] was determined as 12.1 µM; on Cholinesterase [13], 8.93 µM; in assay [14] it was 8.6 µM; in assay [15], 6.3 µM. In assay [16], the Activity came out at 0.52 equiv.
Take `O=C(/C=C/c1ccc(O)cc1)OCCc1ccccc1`: the IC50 in assay [17] amounted to 13 nM.
As for `COc1ccc(/C=C/C(=O)NCCc2ccccc2)cc1O`, the Ki in assay [18] was determined as 110 nM; in assay [19] it was 1950 nM.

As a reminder, the IC50 is the concentration needed to halve the response being measured. By inhibition is commonly meant how much of the control response was suppressed. The Ki is a measure of affinity in units of concentration, obtained from inhibition or displacement.
